Measurements: patent publication US5256788A, “Moranoline derivatives and their production and the use of moranoline and its derivatives as a stabilizing agent for enzymes” (Nippon Shinyaku Co. Ltd., priority 1989, dated 1993)

Assays:
immobilized CGTase = biological target: T1, immobilized CGTase (Geobacillus stearothermophilus, UniProt P31797); assay: Stabilization of immobilized CGTase, sugar transfer continuous reaction of N-methylmoranoline; type: biochemical, Bacillus stearothermophilus; settings: 3360 h; after 140 days, 55° C., 1.5 w/v% N-methylmoranoline and 9 w/v% soluble starch, 160 ml/day; read-out: activity retained
T1 construct: purchased Hayashibara Biochemical Research Institute
T1 sequence (P31797 32-711): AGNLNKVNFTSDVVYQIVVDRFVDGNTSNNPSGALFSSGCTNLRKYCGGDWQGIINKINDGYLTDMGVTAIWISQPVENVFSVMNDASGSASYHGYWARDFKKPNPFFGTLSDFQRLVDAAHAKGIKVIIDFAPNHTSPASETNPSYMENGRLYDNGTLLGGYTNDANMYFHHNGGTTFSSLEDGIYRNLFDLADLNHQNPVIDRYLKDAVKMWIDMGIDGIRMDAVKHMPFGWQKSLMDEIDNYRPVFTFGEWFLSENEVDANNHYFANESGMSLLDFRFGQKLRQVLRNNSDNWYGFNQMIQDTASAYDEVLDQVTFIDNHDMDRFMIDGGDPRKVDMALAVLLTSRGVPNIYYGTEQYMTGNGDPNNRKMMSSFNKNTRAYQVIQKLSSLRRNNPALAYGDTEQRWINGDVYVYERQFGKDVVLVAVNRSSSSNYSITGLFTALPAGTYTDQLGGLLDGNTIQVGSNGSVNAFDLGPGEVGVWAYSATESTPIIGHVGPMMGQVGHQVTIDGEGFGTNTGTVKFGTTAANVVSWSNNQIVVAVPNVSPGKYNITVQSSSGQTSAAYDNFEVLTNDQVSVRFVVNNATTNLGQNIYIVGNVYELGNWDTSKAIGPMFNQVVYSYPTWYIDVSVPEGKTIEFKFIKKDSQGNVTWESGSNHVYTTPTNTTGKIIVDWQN
Experimental: (§1) The immobilized CGTase, 20 ml, obtained in Reference Example 1 was packed in a column having a diameter of 1 cm equipped with a jacket and a solution with the pH being not adjusted containing 1.5 w/v% of N-methylmoranoline and 9 w/v% of soluble starch was continuously passed through the column at 55° C. in a passing velocity of 160 ml/day to react them, whereby the reaction progress rate of the passing liquid was determined with passage of time. The reaction progress rate and activity retention rate were determined in a manner similar to Reference 4. The results reveal that even after 140 days, almost 100% of the activity was retained.
as §1, with “Example A” for “Example 1”, “to Example 27.” for “to Reference 4. The results reveal that even after 140 days, almost 100% of the activity was retained.”

glucoamylase = biological target: T2, glucoamylase (Rhizopus arrhizus, UniProt P07683); assay: Stabilization of GA (aqueous solution) by moranoline, N-methylmoranoline; type: biochemical, Rhizopus niveus
T2 construct: maltose substrate
Experimental: As the enzyme, Rhizopus niveus-derived reagent glucoamylase manufactured by Seikagaku Kogyo Co., Ltd. was used.
After 5 mg of the enzyme was dissolved in 1 ml of 0.1M acetate buffer solution (pH 5.0), moranoline and N-methylmoranoline were dissolved in the solution in a concentration of 6000 μg/ml. The solution was charged in a test tube with a screw stopper followed by incubation at 50° C. Each enzyme solution was diluted with 0.1M acetate buffer solution (pH 5.0) to 100-fold and 100 μl of the dilution was taken. After 400 μl of 5% maltose solution (0.05M acetate buffer solution, pH 4.6) was added thereto, the mixture was reacted at 40° C. for 20 minutes. […] Thereafter, the system was ice cooled and absorbency was measured at 500 nm to determine the glucose amount. […] When the initial enzyme activity (amount of glucose produced) was made […], relative enzyme activity was determined. […]
After 5 mg of the enzyme was dissolved in 1 ml of 0.1M acetate buffer solution (pH 5.0), moranoline and N-methylmoranoline were dissolved in the solution in a concentration of 6000 μg/ml. […] Thereafter, the system was ice cooled and absorbancy was measured at 500 nm to determine the glucose amount. […] When the initial enzyme activity (amount of glucose produced) was made 100, relative enzyme activity was determined. […]

β-glucosidase = assay: Stabilization of β-glucosidase by moranoline and N-methylmoranoline; type: biochemical; settings: 6 mg/ml of the hydrochloride, kept at 60° C.
Experimental: Test samples were (1) 1 ml of 0.2M buffer solution of β-glucosidase (300 μg/ml) alone, (2) 1 ml of 0.2M buffer solution of β-glucosidase (300 μg/ml) supplemented with 6 mg/ml of moranoline hydrochloride and, (3) 1 ml of 0.2M buffer solution of β-glucosidase (300 μg/ml) supplemented with 6 mg/ml of N-methylmoranoline hydrochloride. These test samples were kept at 60° C. and the residual enzyme activity was measured with passage of time.
For determination of the enzyme activity, there was used a method measuring absorbancy at 400 nm using […] as a substrate.
That is, 200 μl of 0.014M p-nitrophenyl-β-D-glucoside, 200 μl of the enzyme solution taken from each sample for sampling with passage of time which was appropriately diluted, and 600 μl of 0.2M acetate buffer solution (pH 4.5) were reacted at 30° C. for 15 minutes. After 2 ml of 0.1M disodium carbonate was added thereto to terminate the reaction, a color was formed and the color was measured at 400 nm. When absorbancy at the initiation of the reaction was made 100, relative absorbancy in each time was defined to be residual activity.

T2 sequence (P07683 26-604): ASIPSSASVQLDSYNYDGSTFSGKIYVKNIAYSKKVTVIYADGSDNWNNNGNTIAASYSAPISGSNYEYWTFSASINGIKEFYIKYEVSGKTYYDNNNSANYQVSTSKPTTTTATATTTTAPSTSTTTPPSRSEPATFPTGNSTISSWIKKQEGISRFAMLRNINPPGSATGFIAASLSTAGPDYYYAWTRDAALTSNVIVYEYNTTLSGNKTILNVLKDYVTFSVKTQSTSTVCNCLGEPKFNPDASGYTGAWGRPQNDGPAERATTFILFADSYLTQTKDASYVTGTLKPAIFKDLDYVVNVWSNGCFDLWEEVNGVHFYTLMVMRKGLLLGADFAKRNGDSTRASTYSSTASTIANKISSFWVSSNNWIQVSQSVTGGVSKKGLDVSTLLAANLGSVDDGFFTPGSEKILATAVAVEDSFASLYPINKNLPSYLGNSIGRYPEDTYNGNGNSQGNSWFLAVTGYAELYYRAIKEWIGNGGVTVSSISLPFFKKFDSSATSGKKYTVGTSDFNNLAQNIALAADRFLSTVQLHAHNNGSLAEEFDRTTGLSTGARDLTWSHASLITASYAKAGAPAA

`CN1C[C@H](O)[C@@H](O)[C@H](O)[C@H]1CO` [N-methylmoranoline] was tested, and the activity at 15000 µg/mL (immobilized CGTase) was ~100%, the “inhibition of the enzyme activity of glucoamylase” value (glucoamylase) was “inhibit the enzyme activity of glucoamylase” and the “stabilizing effect (residual activity, FIG. 4)” value (β-glucosidase) was “stabilizing effect”.
